From patent US9890202B2, “Peptides based on the transmembrane domain of a toll-like receptor (TLR) for treatment of TLR-mediated diseases” (Yeda Research and Development Co. Ltd., priority 2010, dated 2018)
Ends that are not written are not given here.

Columns and labels:
[1] = test system: TLR4; test: NFkB luciferase reporter in PC3 cells activated with LPS; assay type: cell-based, human; conditions: peptide 20 μM, LPS 1 μg/ml
Experimental: (§1) Cells were transfected with a luciferase plasmid under the transcriptional control of NFkB. Upon activation, NFkB trans-locates to the nucleus and induces the expression of luciferase. Cells were activated in the presence of LTA (50 μg/ml) or LPS (1 μg/ml) for 24 hours and were incubated for 2 hours with the hTLR2 TM C′ peptide (SEQ ID NO:83) ([…]) prior to the addition of the activator and washed twice with PBS. Detection of Luc expression was performed by the Steady-Glo assay kit.
(§2) The NFkB responsive element has been widely researched and is known to serve as a specific indication for the presence of the NFkB molecule inside the nucleus. Such a translocation occurs upon activation of the signaling cascade of TLRs, which leads to targeted transcription. This DNA element was introduced into a Luciferase expressing plasmid upstream to the gene thus generating a reporter plasmid for the presence of NFkB in the nucleus. Cells were transfected with the plasmid and 24 hours later were treated with LPS/LTA to induce the signaling cascade through TLR4 and TLR2, respectively. To validate activation, the levels of Luc expression were evaluated using the Steady-Glo kit (Promega) according to manufactures instructions.

[2] = test system: PC3 cells; test: mRNA expression of TGFβ and VEGF in cells activated with LPS/LTA; assay type: cell-based, human; conditions: peptide 20 μM, LPS/LTA stimulation
Experimental: FIGS. 13A-B show mRNA expression of TGFβ (B) and VEGF (A) in LNCaP and PC3 cells in the absence or presence of LPS/LTA and the peptide hTLR2 TM C′ (SEQ ID NO:83) at a concentration of 20 μM.
One of the main features of metastatic cells is their ability to influence their environment due to the secretion of various cytokines. Two of the most influential cytokines are VEGF which induces the formation of blood vessels, and TGFβ which e.g. induces tolerance of immune cells and inhibits apoptosis. We therefore determined the expression of the mRNA of these cytokines in the cells upon their activation with LPS and LTA and the effect of the peptide on the activation. […] These findings lead us to the hypothesis that the presence of the TLRs on PC3 cells contribute to the severity (aggressiveness) of the cancer and its ability to form metastases. Thus, the TLR TM peptides of the invention can be used as new diagnostic biomarkers, which can indicate the rate of growth and the ability of the cells to form metastases.

[3] = test system: LNCaP; test: Toxicity to LNCaP cell line; assay type: cell-based, human; conditions: up to 100 μM (maximal concentration tested)
Experimental: (§3) We synthesized peptides corresponding to either the N-terminus or C-terminus domains of the TM domains of human TLR1, 2 and 5. Each TM domain was divided into two overlapping sequences (Table 2). Activity and toxicity experiments were performed on a peptide corresponding to the C-terminus domain of the TM domain of human TLR2, including the adjacent 5 amino acids from the putative intracellular domain (SEQ ID NO:83, hTLR2-C in Table 2 below, extended with two lysine residues at each of its termini to increase solubility). The peptide was not toxic to either PC3 or LNCaP cell lines at a concentration of up to 100 μM (the maximal concentration tested, data not shown).

[4] = test system: PC3; test: Toxicity to PC3 cell line; assay type: cell-based, human; conditions: up to 100 μM (maximal concentration tested)
Experimental: as §3

[5] = test system: TLR2; test: NFkB luciferase reporter in PC3 cells activated with LTA; assay type: cell-based, human; conditions: peptide 20 μM, LTA 50 μg/ml
Experimental: as §1, §2

[6] = XTT cytotoxicity assay; assay type: cell-based; conditions: mouse, RAW264.7 murine macrophages, RAW264.7 cells, 2 hours incubation, 0.78-100 μM, read-out: LC50 (Lethal Concentration at which 50% of cells die)
Experimental: 1×10^4 cells (RAW264.7 murine macrophages, ATCC® Number-TIB-71) per well were grown over night on a 96-well plate. The following day, the media were replaced with 90 μl fresh culture medium and 10 μl solution buffer containing different concentrations of the different peptides mTLR2 TM N′-CtoA (SEQ ID NO:88), mTLR2 TM C′-CtoA (SEQ ID NO:86), mTLR1 TM N′ (SEQ ID NO:77) and mTLR1 TM C′-CtoA (SEQ ID NO:83). Peptide concentrations range from 0.78-100 μM. The cells were then incubated for 2 hours before adding to each well 50 μl of 2,3-bis[2-methoxy-4-nitro-5-sulfophenyl]-2H-tetrazolium-5-carboxanilide inner salt (XTT) reaction solution (Biological Industries). Viability was determined as described previously (Papo et al., 2004 and Papo et al., 2006). The LC50 (the concentration at which 50% of the cells die) for each peptide was obtained from the dose-dependent cell viability curves.

[7] = test system: TLR2; test: Murine model of acute septic shock caused by LTA (TLR2 hyperactivation); assay type: in vivo, mice; conditions: during the whole experiment
Experimental: To examine the effect of TLR TM peptides on acute septic shock driven by TLR2 hyperactivation we have used a murine model as previously described (Meng et al., 2004). Briefly, 12 weeks old C57 Black female mice (supplied by Harlan) were treated with 100 μg of LTA injected IP in a saline solution (pH 6.5) containing 200 μg/ml of D-galactoseamine (Calbiochem). Treated mice received two injections of peptide at doses of 1, 5 and 10 mg/kg. First injection was given at the time of LTA injection, second injection was given 2 hrs (1 mg/kg) or 12 hrs (5 and 10 mg/kg) later. Animals were monitored for survival for 96 hours after LTA injection. Peptides used for in-vivo experiments were treated twice with 20% acetic acid in order to replace the trifluoroacetate anion added during HPLC purification. For all groups n=8.
In order to test the activity of our peptides in-vivo, we have used a murine model for acute septic shock caused by hyperactivation of TLR2. Mice were injected i.p. with 100 μg of LTA and then treated with mTLR2 TM C′-CtoA peptide (SEQ ID NO:86) in different regimes (see materials and methods section (xi)) or with saline only.

[8] = test system: mTLR1 TM peptides (fluorescein labeled donors); test: FRET between fluorescein and rhodamine labeled TM peptides in PC:Cholesterol LUVs; assay type: binding, mouse; conditions: rhodamine conjugated acceptor added to fluorescein TLR1 TM donors
Experimental: Large unilamellar vesicles (LUVs) composed of phosphatidylcholine (PC) and cholesterol (10:1, w/w), were prepared using the extrusion method as described previously (Cohen et al, 2008). The fluorescence experiments were performed with pairs of peptides using fluorescein labeled peptides as donors and rhodamine labeled peptides as acceptors. Fluorescence spectra were obtained at room temperature, with excitation set at 494 nm (10 nm slit) and emission scan at 500-600 nm (10 nm slits), by a Cary eclipse fluorescence spectrophotometer (Varian Inc., Palo Alto, Calif.). In a typical experiment, a fluorescein labeled peptide was first added from a stock solution in DMSO (final concentration of 0.1 μM peptide and 0.25% (v/v) DMSO) to a solution containing PC:Cholesterol LUVs (100 μM) in HEPES buffer. This was followed by the successive addition of rhodamine labeled peptides to a final concentration ranging from 0.025 to 0.4 μM. Fluorescence spectra were obtained before and after the addition of the rhodamine labeled peptides. Fluorescence values were corrected by subtracting the changes in emission obtained by adding HEPES only. […]
Fluorescence Resonance Energy Transfer (FRET) analysis was used for exploring the interactions of the synthetic TM peptides within large unilameler vesicles (LUVs). […]

Substance | CC50 at 2 h [6] | also measured
KKLILLTGVLCHRFHGLWKK-NH2 [hTLR2 TM C′] | – | inhibition of activation (Luc expression) [1]: could not inhibit; levels of expression of TGFβ and VEGF mRNA [2]: drop in the levels of expression; toxicity [3]: not toxic; toxicity [4]: not toxic; inhibition of Luc expression [5]: 40%
KKLILLVGALAHHFHGLWKK-NH2 [mTLR2 C′ TM (C to A)] | 50 µM | adverse effects in treated mice [7]: no noticeable adverse effects
KKLAVTGAFLASYFDLPWKK-NH2 [mTLR1 C′ TM (C to A + L605S), kkLAVTGAFLASYFDLPWkk] | > 100 µM | –
KKLAVTGAFLALYFDLPWKK-NH2 [mTLR1 C′ TM (C to A)] | 50 µM | –
KKLILLVGALCHHFHGLWKK-NH2 [mTLR2 C′ TM, kkLILLVGALCHHFHGLWkk] | 50 µM | –
KKLAVTGAFLCLYFDLPWKK-NH2 [mTLR1 C′ TM, kkLAVTGAFLCLYFDLPWkk] | > 100 µM | –
KKALVSGVAAALLLLILLVGKK-NH2 [mTLR2 N′ TM (C to A)] | > 100 µM | –
GLRILLLKV-NH2 (not fully specified; printed as GLRILLLKV-NH2) [Cp, the core TM peptide of TCRα, negative control] | – | fluorescence signal decrease (FRET), negative control [8]: no significant fluorescence signal decrease
KKLLTVTIGATMLVLAVTGAKK-NH2 [mTLR1 N′ TM] | > 100 µM | –
